According to patent US7179887B2, “Guinea pig proteinase-activated receptor 4 and its activating peptide” (Ortho-McNeil Pharmaceutical, Inc., priority 2001, dated 2007):
Residues, ends and D or L forms follow the SMILES beside them. No end group written: not given here.

Experiments:
[1] = tested on: guinea pig gel filtered platelets
Protocol: (§1) Human platelet-rich plasma (PRP) concentrate (Biological Specialties, Inc., Colmar, Pa.) was gel-filtered (Sepharose 2B, Pharmacia, Inc.) in Tyrode's buffer (140 mM NaCl, 2.7 mM KCl, 12 mM NaHCO3, 0.76 mM Na2HPO4, 5.5 mM dextrose, 5.0 mM Hepes, and 2 mg/ml BSA, pH 7.4). Guinea pigs (400–800 g) were anesthetized and blood drawn via an intraarterial catheter. PRP was prepared by centrifugation at 200×g for 10 min. Guinea pig PRP was gel-filtered as above. Gel-filtered platelets were diluted with Tyrode's buffer (143,000 platelets/μl, per well) and 2 mM CaCl2 in a 96-well microtiter plate. Platelet aggregation was initiated by the addition of the guinea pig PAR-4 AP (SFPGQA-NH2, SEQ ID No.:7) peptide. The assay plate was gently mixed constantly. Aggregation was monitored at 0 and 5 min after agonist addition in a microplate reader (Molecular Devices) by optical density at 650 nm (ΔSOFT). Aggregation was calculated as the decrease in optical density between the two measurements. All samples were tested in duplicate wells on the same plate.

[2] = tested on: human gel filtered platelets; settings: for induction of human platelet aggregation / activation of human PAR-4 (in words): human platelets
Protocol: as §1

[3] = tested on: guinea pig gel filtered platelets; settings: Nishikawa et al. (2000); cited from earlier work
[4] = tested on: human gel filtered platelets; settings: background statement; cited from earlier work

C[C@H](NC(=O)[C@H](CCC(N)=O)NC(=O)CNC(=O)[C@@H]1CCCN1C(=O)[C@H](Cc1ccccc1)NC(=O)[C@@H](N)CO)C(N)=O [guinea pig PAR-4 AP, SFPGQA-NH2] (H-SFPGQA-NH2; N-terminus assumed)
EC50 [1]: 174 ± 14.6 µM | EC50 [2]: 140 ± 2.5 µM | induction of human platelet aggregation / activation of human PAR-4 (in words) [2]: cross-activates human PAR-4

GYPGQV-NH2 [human PAR-4 AP]
induction of human platelet aggregation / activation of human PAR-4 (in words) [2]: induced human platelet aggregation

GYPGKF-NH2 [murine PAR-4 AP]
response of guinea pig platelets to activating peptide (literature) [3]: do not respond

SFLLRN-NH2 [human PAR-1 AP]
induction of guinea pig platelet aggregation / response of guinea pig PAR-4 (in words) ([1]; isolated guinea pig platelets): induced guinea pig platelet aggregation | aggregation of human platelets by exogenous activating peptide (background) [4]: aggregation of human platelets can be reproduced | induction of human platelet aggregation / activation of human PAR-4 (in words) [2]: induced human platelet aggregation
